Laboratory results reported in patent US20150322033A1, “ANTIBACTERIAL AGENT” (priority 2012, published 2015).
≈ marks a conversion by molar mass, not a printed value. Where two headings read alike, the source gives them in different places.

Assays:
S. aureus Mu50 = test: microbe, parasite or virus in culture; assay type: cell-based, Staphylococcus aureus; conditions: for MIC: Staphylococcus aureus; for MIC (mg/L) Mu50: Example 1, Tables 1 to 10;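 on MIC ratio: ratio is FDA209P MIC divided by Mu50 MIC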
Description: (§1) S. aureus Mu50 (refer to Hiramatsu, K., Hanaki H., et al., J. Antimicrob. Chemother., 1997, 40(1), 135-6) or S. aureus FDA209P (ATCC 6538P) was cultured overnight at 37° C. in 4 mL of TBS (Tryptical Soy Broth, produced by Becton Dickinson) with shaking. After completion of the culture, the cells were suspended in fresh TBS to prepare a cell suspension showing an absorbance of 0.3 at 578 nm. Then, the cell suspension was diluted 500 times with CAMHB mentioned above.
(§2) CAMHB containing each test compound at each of the aforementioned concentrations was added to each well of a 96-well plate in a volume of 50 μL/well, the aforementioned cell suspension diluted 500 time was added to the well in a volume of 50 μL/well, and stationary culture was carried out overnight at 37° C.
(§3) MIC values (mg/L) of the flavones and quinolones against the strains were measured in the same manner as that of the measurement of MIC of Example 1, except that CAMHB containing each of the aforementioned flavones and quinolones prepared in Example 2 was used instead of CAMHB containing each of the test compounds.
(§4) MIC values of the flavones and quinolone for the strains were measured in the same manners as those of Example 1, except that S. aureus Mu50 NR-1 was also used as Staphylococcus aureus in addition to S. aureus FDA209P and S. aureus Mu50, cell suspensions of the strains were prepared.
(§5) In the same manner as that of Example 1, MIC values of M-246, M-21, J-Q21, and J-Q12.1 for Staphylococcus aureus were measured. M-246 and M-21 were obtained as commercial products, and as J-Q21 and J-Q12.1, those synthesized in Examples 6 and 7 were used.

[1] = system: S. aureus FDA209P (ATCC 6538P); test: microbe, parasite or virus in culture; assay type: cell-based, Staphylococcus aureus; conditions: for MIC: Staphylococcus aureus
Description: as §1, §2, §3, §4, §5

[2] = MU50, read-out: MIC (mg/L) Mu50, Example 1, Tables 1 to 10
[3] = Example 1, Tables 1 to 10, read-out: MIC (mg/L) FDA209P
[4] = MU50, read-out: MIC Mu50, Example 8, Table 17
[5] = Example 8, Table 17, read-out: MIC FDA209P

Row | Molecule | MIC (S. aureus Mu50; [2]) [mg/L] | MIC [1, 3] [mg/L] | MIC (mg/L) Mu50 (S. aureus Mu50) [mg/L] | MIC (mg/L) FDA209P ([1]; Example 1, Tables 1 to 10) [mg/L] | also measured
1 | 2-phenylchromen-4-one (2-phenyl-1-benzopyran-4-one) [No. 25, reference compound] | – | – | – | – | MIC (mg/L) Mu50 (S80F, S84L) (S. aureus Mu50; Example 3, Table 13): 64 mg/L
2 | O.Oc1cc(O)c2c(c1)OC(c1ccc(O)c(O)c1)C(O)C2 (single isomer, unassigned; (+)) [compound 132, (+)-3,3′,4′,5,7-Flavanpentol Hydrate] | 128 | 128 | – | – | –
3 | O=c1cc(-c2ccccc2)oc2ccccc12.O=c1cc(-c2ccccc2)oc2ccccc12 [Compound 25] | – | – | – | – | MIC ratio (S. aureus Mu50; (MIC value for S. aureus FDA209P)/(MIC value for S. aureus Mu50)): 2; MIC (mg/L) S. aureus Mu50 (S. aureus Mu50; Example 2, Table 12): 64 mg/L; MIC (mg/L) S. aureus FDA209P ([1]; Example 2, Table 12): 128 mg/L
4 | O=c1cc(-c2ccc(O)cc2)oc2c(C3CC3)c(O)cc(O)c12 [J-Q12.1, 8-Cyclopropyl-5,7-dihydroxy-2-(4-hydroxyphenyl)-chromen-4-one] | – | – | – | – | MIC (S. aureus Mu50; [4]): 8 mg/L (≈ 25.8 µM); MIC [1, 5]: 8 mg/L (≈ 25.8 µM)
5 | O=c1cc(-c2ccc(O)cc2)oc2c(C3CC3)c(O)ccc12 [J-Q21, 8-Cyclopropyl-7-hydroxy-2-(4-hydroxyphenyl)chromen-4-one] | – | – | – | – | MIC (S. aureus Mu50; [4]): 4 mg/L (≈ 13.6 µM); MIC [1, 5]: > 128 mg/L
6 | O=c1c(O)c(-c2ccccc2)oc2cc(O)c(O)c(O)c12 [M-21] | – | – | – | – | MIC Mu50 (S. aureus Mu50; Example 8, Table 17): 16 µg/mL (≈ 55.9 µM); MIC FDA209P ([1]; Example 8, Table 17): 64 µg/mL (≈ 224 µM)
7 | O=c1c(O)c(-c2ccc(O)cc2O)oc2cc(O)cc(O)c12 [compound 2] | – | – | 128 (≈ 424 µM) | >128 | –
8 | O=c1c(O)c(-c2ccc(O)cc2O)oc2cc(O)cc(O)c12 [compound 3] | – | – | >128 | >128 | –
9 | Cc1c(O)cc2oc(-c3ccc(O)c(O)c3)c(O)c(=O)c2c1O [compound 5] | – | – | 128 (≈ 405 µM) | 128 (≈ 405 µM) | –
10 | Cc1c(O)cc(O)c2c(=O)cc(-c3ccccc3)oc12 [compound 8] | – | – | – | >128 | –
11 | COc1ccc(-c2cc(=O)c3c(OC)c(OC)c(OC)c(OC)c3o2)cc1OC [compound 10] | – | – | – | 128 (≈ 318 µM) | –
12 | COc1ccc(-c2cc(=O)c3c(OC)c(OC)c(OC)c(OC)c3o2)cc1 [compound 11] | – | – | >128 | >128 | –
13 | O=c1c(O)c(-c2ccccc2)oc2ccccc12 [compound 12] | – | – | >128 | >128 | –
14 | O=c1cc(-c2ccccc2)oc2ccc(O)cc12 [compound 13] | – | – | >128 | >128 | –
15 | O=c1cc(-c2ccccc2)oc2c(O)c(O)ccc12 [compound 14] | – | – | 64 (≈ 252 µM) | 64 (≈ 252 µM) | –
16 | COc1ccc2oc(-c3ccccc3)cc(=O)c2c1 [compound 16] | – | – | 128 (≈ 507 µM) | 128 (≈ 507 µM) | –
17 | O=c1cc(-c2ccccc2)oc2cccc(O)c12 [compound 17] | – | – | 128 (≈ 537 µM) | 128 (≈ 537 µM) | –
18 | COc1ccc(-c2cc(=O)c3c(OC)cc(OC)cc3o2)cc1 [compound 18] | – | – | 128 (≈ 410 µM) | 128 (≈ 410 µM) | –
19 | COc1cc(OC)c2c(=O)c(OC)c(-c3ccc(OC)c(OC)c3)oc2c1 [compound 19] | – | – | >128 | >128 | –
20 | COc1cc(OC)c2c(=O)cc(-c3ccccc3)oc2c1C [compound 21] | – | – | >128 | >128 | –
21 | CC(C)Oc1ccc(-c2cc(=O)c3c(OC(C)C)cc(OC(C)C)c(I)c3o2)cc1 [compound 23] | – | – | >128 | >128 | –

Row | Molecule | MIC (S. aureus Mu50; [2]) [mg/L] | MIC [1, 3] [mg/L] | MIC (mg/L) Mu50 (S. aureus Mu50) [mg/L] | MIC (mg/L) FDA209P ([1]; Example 1, Tables 1 to 10) [mg/L] | also measured
22 | COc1c(O)cc2oc(-c3ccc(O)cc3)cc(=O)c2c1O [compound 26] | – | – | – | – | MIC ([1]; read-out: MIC (mg/L) FDA209P): > 128 mg/L
23 | COc1c(O)cc2oc(-c3ccc(O)cc3)c(OC)c(=O)c2c1O [compound 27] | > 128 | > 128 | – | – | –
24 | COc1cc2oc(-c3ccc(O)cc3)cc(=O)c2c(O)c1OC [compound 28] | > 128 | > 128 | – | – | –
25 | COc1cc(-c2oc3cc(O)c(OC)c(O)c3c(=O)c2OC)ccc1O [compound 29] | > 128 | > 128 | – | – | –
26 | COc1ccc(-c2cc(=O)c3c(OC)c(OC)c(OC)c(OC)c3o2)cc1 [compound 30] | > 128 | 128 (≈ 344 µM) | – | – | –
27 | COc1cc2oc(-c3ccc(O)c(O)c3)cc(=O)c2c(O)c1OC [compound 31] | > 128 | > 128 | – | – | –
28 | COc1ccc(-c2oc3cc4c(c(OC)c3c(=O)c2OC)OCO4)cc1 [compound 32] | – | – | >128 | >128 | –
29 | COc1ccc(-c2oc3cc(OC)c(OC)c(O)c3c(=O)c2OC)cc1O [compound 33] | 128 (≈ 342 µM) | > 128 | – | – | –
30 | COc1ccc(-c2cc(=O)c3c(O)c(O)c(O)cc3o2)cc1 [compound 34] | 128 (≈ 426 µM) | 128 (≈ 426 µM) | – | – | –
31 | COc1cc(-c2oc3c(OC)c(OC)c(OC)c(OC)c3c(=O)c2OC)cc2c1OCO2 [compound 35] | – | – | – | >128 | –
32 | CC(=O)Oc1cc(OC(C)=O)c2c(=O)cc(-c3ccc(OC(C)=O)c(OC(C)=O)c3)oc2c1 [compound 36] | > 128 | > 128 | – | – | –
33 | O=c1c(O)c(-c2ccc(O)c(O)c2)oc2c(O)c(O)cc(O)c12 [compound 37] | 62 (≈ 195 µM) | 128 (≈ 402 µM) | 64 (≈ 201 µM) | – | –
34 | COc1ccc(-c2cc(=O)c3c(OC)c(OC)c(OC)cc3o2)cc1O [compound 39] | 128 (≈ 357 µM) | 128 (≈ 357 µM) | – | – | –
35 | COc1ccc(-c2cc(=O)c3c(O)c(OC)c(OC)cc3o2)cc1O [compound 40] | 128 (≈ 372 µM) | 128 (≈ 372 µM) | – | – | –
36 | O=c1cc(-c2ccc(O)cc2)oc2cc(O)c(O)c(O)c12 [compound 41] | 128 (≈ 447 µM) | 128 (≈ 447 µM) | – | – | –
37 | COc1ccc(-c2cc(=O)c3c(OC)c(OC)c(OC)cc3o2)cc1OC [compound 42] | > 128 | > 128 | – | – | –
38 | COc1cc(OC)c2c(=O)cc(-c3cc(OC)c(OC)c(OC)c3)oc2c1 [compound 43] | > 128 | > 128 | – | – | –
39 | CC1(C)C=Cc2c(cc3oc(-c4ccc(O)cc4)cc(=O)c3c2O)O1 [compound 44] | > 128 | > 128 | – | – | –
40 | COc1cc(O)c(CN2CCCC(C)C2)c2oc(-c3ccccc3)cc(=O)c12 (stereo not drawn) [compound 53] | – | – | – | 128 (≈ 337 µM) | –
41 | COc1cc(O)c2c(=O)c(-c3cc4c(cc3C)OCCO4)c(C)oc2c1 [compound 86] | – | – | – | >128 | –
42 | CCc1oc2cc(O)cc(O)c2c(=O)c1-c1ccc(OC)cc1 [compound 90] | – | 128 (≈ 410 µM) | – | – | –
